Measured values taken from publication PMC7052193, “Nanobody-enabled monitoring of kappa opioid receptor states” (Nature Communications, 2020).
“And” between values parts separate entries of the source, which are not always exact repeats. Equal values may be shown once.

Columns and labels:
KOR [1] = biological target: T1, KOR (Homo sapiens, UniProt P41145); assay: Competition binding with 3H-JDTic in the absence or presence of 5 µM Nb6 or Nb39
KOR [2] = biological target: T1, KOR; assay: Real-time BRET kinetics of KOR–Nb39; assay type: cell-based; settings: SalA / Buffer
KOR [3] = biological target: T1, KOR; assay: Real-time BRET kinetics of KOR–Nb6; assay type: cell-based; settings: for BRET, KOR + Nb6: SalA / Buffer
[4] = biological target: T2, human KOR containing C-terminal Renilla luciferase (RLuc8) (human, UniProt P41145); assay: FRET or BRET; kinetic BRET in HEK 293T cells co-expressing KOR-Rluc and Nb6-mVenus or Nb39-mVenus; 10 µM Sal A, then 10 µM JDTic added at the indicated times; t1/2 from one phase exponential decay; settings: partners not purified
T2 construct: kappa opioid receptor, human, wild type; also called KOR-Rluc; kappa opioid receptor; source: HEK 293T, co-transfected, in live cells; not shown: RLuc8, C-terminal, kept

[5] = biological target: T2, human KOR containing C-terminal Renilla …; assay: FRET or BRET; live HEK 293T cells co-transfected with receptor-RLuc and nanobody-mVenus (1:3); net BRET ratio without agonist (no drug, or with the antagonist JDTic); 20 mM HEPES, 1X HBSS, pH 7.4; settings: partners not purified

In the case of `O=C(N[C@@H]1C=CC2[C@H]3Cc4ccc(O)c5c4[C@@]2(CCN3CC2CC2)[C@H]1O5)c1cccc(I)c1` (some centres unmarked) [MP1104], the “effect of Nb6 on binding affinity” value (KOR [1]) is reported as “only slightly affected”.

`COC(=O)[C@@H]1C[C@H](OC(C)=O)C(=O)[C@H]2[C@@]1(C)CC[C@H]1C(=O)O[C@H](c3ccoc3)C[C@]21C` [Sal A, Salvinorin A] was tested, and the “BRET, KOR + Nb39” value (KOR [2]; time 5 min) was 0.0262 and 0.02211 and 0.02102 and 0.02289, the “BRET, KOR + Nb39” value (KOR [2]; time 6 min) was 0.3036 and 0.3141 and 0.3188 and 0.3115 and the “BRET, KOR + Nb39” value (KOR [2]; time 7 min) was 0.3004 and 0.3137 and 0.3136 and 0.3142. For the same molecule, the “BRET, KOR + Nb39” value (KOR [2]; time 8 min) was 0.2978 and 0.3081 and 0.3108 and 0.3153, the “BRET, KOR + Nb39” value (KOR [2]; time 9 min) was 0.2922 and 0.311 and 0.3085 and 0.3127 and the “BRET, KOR + Nb39” value (KOR [2]; time 10 min) was 0.2996 and 0.3174 and 0.3198. The “BRET, KOR + Nb39” value (KOR [2]; time 11 min) was 0.2967 and 0.3155 and 0.3205, the “BRET, KOR + Nb39” value (KOR [2]; time 12 min) was 0.298 and 0.3156 and 0.3148 and 0.3226 and the “BRET, KOR + Nb39” value (KOR [2]; time 13 min) was 0.2971 and 0.3177 and 0.3205 and 0.3168. For the same molecule, the “BRET, KOR + Nb39” value (KOR [2]; time 14 min) was 0.2971 and 0.3134 and 0.3132 and 0.3235, the “BRET, KOR + Nb39” value (KOR [2]; time 15 min) was 0.2986 and 0.3191 and 0.3238 and 0.3265 and the “BRET, KOR + Nb39” value (KOR [2]; time 16 min) was 0.2964 and 0.3182 and 0.3184 and 0.324. For the same molecule, the “BRET, KOR + Nb39” value (KOR [2]; time 17 min) was 0.3018 and 0.3186 and 0.3227 and 0.3317, the “BRET, KOR + Nb39” value (KOR [2]; time 18 min) was 0.3003 and 0.3158 and 0.3185 and 0.326 and the “BRET, KOR + Nb39” value (KOR [2]; time 19 min) was 0.3043 and 0.3186 and 0.3228 and 0.323. The “BRET, KOR + Nb39” value (KOR [2]; time 20 min) was 0.2961 and 0.3231 and 0.3183 and 0.3325, the “BRET, KOR + Nb39” value (KOR [2]; time 21 min) was 0.3008 and 0.3186 and 0.3235 and the “BRET, KOR + Nb39” value (KOR [2]; time 22 min) was 0.3025 and 0.3173 and 0.3147 and 0.3318. For the same molecule, the “BRET, KOR + Nb39” value (KOR [2]; time 23 min) was 0.2987 and 0.3226 and 0.3296, the “BRET, KOR + Nb39” value (KOR [2]; time 24 min) was 0.2996 and 0.3206 and 0.3159 and 0.3334 and the “BRET, KOR + Nb39” value (KOR [2]; time 25 min) was 0.3041 and 0.3179 and 0.3117 and 0.3236. The “BRET, KOR + Nb39” value (KOR [2]; time 26 min) was 0.2994 and 0.3089 and 0.3198 and 0.3347, the “BRET, KOR + Nb39” value (KOR [2]; time 27 min) was 0.3042 and 0.3155 and 0.3211 and 0.3323 and the “BRET, KOR + Nb39” value (KOR [2]; time 28 min) was 0.2989 and 0.303 and 0.3151 and 0.3345. The “BRET, KOR + Nb39” value (KOR [2]; time 29 min) was 0.2966 and 0.3193 and 0.305 and 0.3267, the “BRET, KOR + Nb39” value (KOR [2]; time 30 min) was 0.2958 and 0.3183 and 0.3167 and 0.3297 and the “t1/2 of decrease in Nb6-KOR BRET” value (KOR [3]; 10 µM Sal A added) was 0.833 ± 0.167 min. The “BRET, KOR + Nb6” value (KOR [3]; time 5 min) was 1.409 and 1.4035 and 1.421 and 1.389, the “BRET, KOR + Nb6” value (KOR [3]; time 6 min) was 1.298 and 1.281 and 1.268 and 1.228 and the “BRET, KOR + Nb6” value (KOR [3]; time 7 min) was 1.173 and 1.165 and 1.166 and 1.137. The “BRET, KOR + Nb6” value (KOR [3]; time 8 min) was 1.122 and 1.113 and 1.12 and 1.093, the “BRET, KOR + Nb6” value (KOR [3]; time 9 min) was 1.088 and 1.0779 and 1.094 and 1.0747 and the “BRET, KOR + Nb6” value (KOR [3]; time 10 min) was 1.082 and 1.078 and 1.0874 and 1.065. The “BRET, KOR + Nb6” value (KOR [3]; time 11 min) was 1.074 and 1.07 and 1.083 and 1.058, the “BRET, KOR + Nb6” value (KOR [3]; time 12 min) was 1.074 and 1.063 and 1.076 and 1.058 and the “BRET, KOR + Nb6” value (KOR [3]; time 13 min) was 1.075 and 1.061 and 1.082 and 1.064. For the same molecule, the “BRET, KOR + Nb6” value (KOR [3]; time 14 min) was 1.069 and 1.063 and 1.08 and 1.062, the “BRET, KOR + Nb6” value (KOR [3]; time 15 min) was 1.083 and 1.067 and 1.08 and 1.061 and the “BRET, KOR + Nb6” value (KOR [3]; time 16 min) was 1.077 and 1.067 and 1.078 and 1.056. For the same molecule, the “BRET, KOR + Nb6” value (KOR [3]; time 17 min) was 1.076 and 1.07 and 1.085 and 1.064, the “BRET, KOR + Nb6” value (KOR [3]; time 18 min) was 1.081 and 1.07 and 1.082 and 1.068 and the “BRET, KOR + Nb6” value (KOR [3]; time 19 min) was 1.086 and 1.077 and 1.091 and 1.066. The “BRET, KOR + Nb6” value (KOR [3]; time 20 min) was 1.081 and 1.073 and 1.083 and 1.0658, the “BRET, KOR + Nb6” value (KOR [3]; time 21 min) was 1.087 and 1.079 and 1.095 and 1.076 and the “BRET, KOR + Nb6” value (KOR [3]; time 22 min) was 1.074 (2×) and 1.079 and 1.0714. The “BRET, KOR + Nb6” value (KOR [3]; time 23 min) was 1.088 and 1.082 and 1.074 and 1.0724, the “BRET, KOR + Nb6” value (KOR [3]; time 24 min) was 1.091 and 1.078 and 1.081 and 1.076 and the “BRET, KOR + Nb6” value (KOR [3]; time 25 min) was 1.086 and 1.081 and 1.078 and 1.0719. For the same molecule, the “BRET, KOR + Nb6” value (KOR [3]; time 26 min) was 1.084 and 1.082 and 1.088 and 1.07, the “BRET, KOR + Nb6” value (KOR [3]; time 27 min) was 1.079 and 1.0834 and 1.085 and 1.083 and the “BRET, KOR + Nb6” value (KOR [3]; time 28 min) was 1.084 and 1.076 and 1.086 (2×). The “BRET, KOR + Nb6” value (KOR [3]; time 29 min) was 1.0858 and 1.081 (2×) and 1.075.

B1: Nb39-mVenus (VHH)
VHH: QVQLVESGGGLVRPGGSLRLSCVDSERTSYPMGWFRRAPGKEREFVASITWSGIDPTYADSVADRFTTSRDVANNTLYLQMNSLKHEDTAVYYCAARAPVGQSSSPYDYDYWGQGTQVTVSS
notes: nanobody chain of the cited KOR-MP1104-Nb39 structure PDB 6B73; A purified Nb39 from E. coli WK6 (no mVenus) was used at 5 µM in the radioligand assays; the functional row on it uses this id; also called positive allosteric nanobody; active-state associated nanobody; source: HEK 293T, co-transfected, in live cells; not shown: mVenus, C-terminal, kept
With B1 the “t1/2 of the reversal of the KOR-Nb39 association by JDTic” value [4] was 1.78 ± 0.25 min.

B2: Nb6-mVenus with R102 mutated (VHH)
VHH: QVQLQESGGGLVQAGESLRLSCAASGTIFRLYDMGWYRRVSGNQRELVASITSGGSTKYGDSVKGRFTISRDNAKNTVYLQMSSLKPEDTAVYYCNAEYATGIWEELLDGWGQGTQVTVSS
notes: as the chain of m4 (PDB 6VI4) with R102 mutated; also called Nb6 R102 mutant; source: HEK 293T, co-transfected, in live cells; not shown: mVenus, C-terminal, kept
B2: no binding [5].

B3: Nb6-mVenus with W106 mutated (VHH)
VHH: QVQLQESGGGLVQAGESLRLSCAASGTIFRLYDMGWYRRVSGNQRELVASITSGGSTKYGDSVKGRFTISRDNAKNTVYLQMSSLKPEDTAVYYCNAEYRTGIAEELLDGWGQGTQVTVSS
notes: as the chain of m4 (PDB 6VI4) with W106 mutated; also called Nb6 W106 mutant; source: HEK 293T, co-transfected, in live cells; not shown: mVenus, C-terminal, kept
B3: no binding [5].
